What was measured:
Test in all cases: Test D controlled growth environment herbicide test, pre- and postemergence
Type in all cases: in vivo
[1] = test system: galium (catchweed bedstraw, Galium aparine)
How it was run: (§1)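 Rating is visual, 0–100 scale (100 = complete control), made against untreated plants 14–21 d after treatment in controlled growth conditions. Postemergence sprays went onto 1- to 4-leaf plants in peat medium; preemergence sprays onto silt loam after sowing; formulation included a surfactant.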

[2] = test system: chamomile (scentless chamomile, Matricaria inodora)
How it was run: as §1

[3] = test system: lambsquarters (Chenopodium album)
How it was run: as §1

[4] = test system: barley, spring (spring barley, Hordeum vulgare)
How it was run: as §1

[5] = test system: bluegrass (annual bluegrass, Poa annua)
How it was run: as §1

[6] = test system: buckwheat, wild (wild buckwheat, Polygonum convolvulus)
How it was run: as §1

[7] = test system: windgrass (Apera spica-venti)
How it was run: as §1

[8] = test system: field violet (Viola arvensis)
How it was run: as §1

[9] = test system: field poppy (Papaver rhoeas)
How it was run: as §1

[10] = test system: barley, winter (winter barley, Hordeum vulgare)
How it was run: as §1

kochia (Kochia scoparia) = test system: kochia (Kochia scoparia)
How it was run: as §1

[11] = test system: canarygrass (Phalaris minor)
How it was run: as §1

[12] = test system: radish, wild (wild radish, Raphanus raphanistrum)
How it was run: as §1

[13] = test system: pigweed (Amaranthus retroflexus)
How it was run: as §1

[14] = Postemergence, 31 g ai/ha, scale 0 to 100 (0 no effect, 100 complete control)
[15] = Postemergence, 125 g ai/ha, visual rating on scale 0 (no effect) to 100 (complete control), 14 to 21 d
[16] = Postemergence, 250 g ai/ha, scale 0 to 100 (0 no effect, 100 complete control)
[17] = Preemergence, 62 g ai/ha, scale 0 to 100 (0 no effect, 100 complete control)
[18] = Preemergence, 125 g ai/ha, scale 0 to 100 (0 no effect, 100 complete control)
[19] = Preemergence, 250 g ai/ha, scale 0 to 100, 0 no effect, 100 complete control
[20] = postemergence, 62 g ai/ha, scale 0 to 100, 0 no effect, 100 complete control

## Cc1ccc2sc(C)c(-c3c(OC(=O)OC(C)C)c(C)nn(C)c3=O)c2c1 [Compound 66]
[1]; [14]
  Galium plant response rating: 85
[1]; [15]
  Plant response rating, Galium: 100
[1]; [16]
  Plant response rating, Galium: 100
[1]; Preemergence, 31 g ai/ha
  Plant response rating (scale of 0 to 100), Galium: 0
[1]; [17]
  Plant response rating, Galium: 20
[1]; [18]
  Plant response rating, Galium: 65
[1]; [19]
  Plant response rating, Galium: 75
[1]; [20]
  Plant response rating, Galium: 100
[2]; [14]
  Chamomile plant response rating: 85
[2]; [15]
  Plant response rating, Chamomile: 100
[2]; [16]
  Plant response rating, Chamomile: 100
[2]; Preemergence, 31 g ai/ha
  Plant response rating (scale of 0 to 100), Chamomile: 90
[2]; [17]
  Plant response rating, Chamomile: 100
[2]; [18]
  Plant response rating, Chamomile: 100
[2]; [19]
  Plant response rating, Chamomile: 100
[2]; [20]
  Plant response rating, Chamomile: 90
[3]; [14]
  Lambsquarters plant response rating: 95
[3]; [15]
  Plant response rating, Lambsquarters: 100
[3]; [16]
  Plant response rating, Lambsquarters: 100
[3]; Preemergence, 31 g ai/ha
  Plant response rating (scale of 0 to 100), Lambsquarters: 55
[3]; [17]
  Plant response rating, Lambsquarters: 100
[3]; [18]
  Plant response rating, Lambsquarters: 100
[3]; [19]
  Plant response rating, Lambsquarters: 100
[3]; [20]
  Plant response rating, Lambsquarters: 95
[4]; [14]
  Barley, Spring plant response rating: 0
[4]; [15]
  Plant response rating, Barley, Spring: 5
[4]; [16]
  Plant response rating, Barley, Spring: 15
[4]; Preemergence, 31 g ai/ha
  Plant response rating (scale of 0 to 100), Barley, Spring: 0
[4]; [17]
  Plant response rating, Barley, Spring: 0
[4]; [19]
  Plant response rating, Barley, Spring: 10
[4]; [20]
  Plant response rating, Barley, Spring: 0
[5]; [14]
  Bluegrass plant response rating: 0
[5]; [15]
  Plant response rating, Bluegrass: 30
[5]; [16]
  Plant response rating, Bluegrass: 35
[5]; Preemergence, 31 g ai/ha
  Plant response rating (scale of 0 to 100), Bluegrass: 10
[5]; [17]
  Plant response rating, Bluegrass: 15
[5]; [18]
  Plant response rating, Bluegrass: 25
[5]; [19]
  Plant response rating, Bluegrass: 30
[5]; [20]
  Plant response rating, Bluegrass: 25
[6]; [14]
  Buckwheat, Wild plant response rating: 95
[6]; [15]
  Plant response rating, Buckwheat, Wild: 100
[6]; [16]
  Plant response rating, Buckwheat, Wild: 100
[6]; Preemergence, 31 g ai/ha
  Plant response rating (scale of 0 to 100), Buckwheat, Wild: 0
[6]; [17]
  Plant response rating, Buckwheat, Wild: 0
[6]; [18]
  Plant response rating, Buckwheat, Wild: 0
[6]; [19]
  Plant response rating, Buckwheat, Wild: 0
[6]; [20]
  Plant response rating, Buckwheat, Wild: 100
[7]; [14]
  Windgrass plant response rating: 75
[7]; [15]
  Plant response rating, Windgrass: 85
[7]; [16]
  Plant response rating, Windgrass: 100
[7]; Preemergence, 31 g ai/ha
  Plant response rating (scale of 0 to 100), Windgrass: 70
[7]; [17]
  Plant response rating, Windgrass: 75
[7]; [18]
  Plant response rating, Windgrass: 85
[7]; [19]
  Plant response rating, Windgrass: 85
[7]; [20]
  Plant response rating, Windgrass: 80
[8]; [14]
  Field Violet plant response rating: 85
[8]; [15]
  Plant response rating, Field Violet: 95
[8]; [16]
  Plant response rating, Field Violet: 95
[8]; Preemergence, 31 g ai/ha
  Plant response rating (scale of 0 to 100), Field Violet: 60
[8]; [17]
  Plant response rating, Field Violet: 85
[8]; [18]
  Plant response rating, Field Violet: 95
[8]; [19]
  Plant response rating, Field Violet: 98
[8]; [20]
  Plant response rating, Field Violet: 95
[9]; [14]
  Field Poppy plant response rating: 70
[9]; [15]
  Plant response rating, Field Poppy: 95
[9]; [16]
  Plant response rating, Field Poppy: 95
[9]; Preemergence, 31 g ai/ha
  Plant response rating (scale of 0 to 100), Field Poppy: 100
[9]; [17]
  Plant response rating, Field Poppy: 100
[9]; [18]
  Plant response rating, Field Poppy: 100
[9]; [19]
  Plant response rating, Field Poppy: 100
[9]; [20]
  Plant response rating, Field Poppy: 85
[10]; [14]
  Barley, Winter plant response rating: 0
[10]; [15]
  Plant response rating, Barley, Winter: 0
[10]; [16]
  Plant response rating, Barley, Winter: 5
[10]; Preemergence, 31 g ai/ha
  Plant response rating (scale of 0 to 100), Barley, Winter: 0
[10]; [17]
  Plant response rating, Barley, Winter: 0
[10]; [18]
  Plant response rating, Barley, Winter: 0
[10]; [19]
  Plant response rating, Barley, Winter: 10
[10]; [20]
  Plant response rating, Barley, Winter: 0
Kochia (Kochia scoparia); [14]
  Kochia plant response rating: 85
Kochia (Kochia scoparia); [15]
  Plant response rating, Kochia: 100
Kochia (Kochia scoparia); [16]
  Plant response rating, Kochia: 100
Kochia (Kochia scoparia); Preemergence, 31 g ai/ha
  Plant response rating (scale of 0 to 100), Kochia: 0
Kochia (Kochia scoparia); [17]
  Plant response rating, Kochia: 15
Kochia (Kochia scoparia); [18]
  Plant response rating, Kochia: 75
Kochia (Kochia scoparia); [19]
  Plant response rating, Kochia: 85
Kochia (Kochia scoparia); [20]
  Plant response rating, Kochia: 95
[11]; [14]
  Canarygrass plant response rating: 55
[11]; [15]
  Plant response rating, Canarygrass: 70
[11]; [16]
  Plant response rating, Canarygrass: 85
[11]; Preemergence, 31 g ai/ha
  Plant response rating (scale of 0 to 100), Canarygrass: 25
[11]; [17]
  Plant response rating, Canarygrass: 80
[11]; [18]
  Plant response rating, Canarygrass: 85
[11]; [19]
  Plant response rating, Canarygrass: 95
[11]; [20]
  Plant response rating, Canarygrass: 65
[12]; [14]
  Radish, Wild plant response rating: 5
[12]; [15]
  Plant response rating, Radish, Wild: 30
[12]; [16]
  Plant response rating, Radish, Wild: 45
[12]; Preemergence, 31 g ai/ha
  Plant response rating (scale of 0 to 100), Radish, Wild: 30
[12]; [17]
  Plant response rating, Radish, Wild: 70
[12]; [18]
  Plant response rating, Radish, Wild: 75
[12]; [19]
  Plant response rating, Radish, Wild: 70
[12]; [20]
  Plant response rating, Radish, Wild: 25
[13]; [14]
  Pigweed plant response rating: 95
[13]; [15]
  Plant response rating, Pigweed: 100
[13]; [16]
  Plant response rating, Pigweed: 100
[13]; Preemergence, 31 g ai/ha
  Plant response rating (scale of 0 to 100), Pigweed: 30
[13]; [17]
  Plant response rating, Pigweed: 100
[13]; [18]
  Plant response rating, Pigweed: 100
[13]; [19]
  Plant response rating, Pigweed: 100
[13]; [20]
  Plant response rating, Pigweed: 100
